Source: PMC10608021, “Angiotensin-I-Converting Enzyme (ACE)-Inhibitory Peptides from the Collagens of Monkfish (Lophius litulon) Swim Bladders: Isolation, Characterization, Molecular Docking Analysis and Activity Evaluation” (Marine Drugs, 2023)
Read-outs that look alike come from different tables or passages of the source.

Tests used:
[1] = target: T1, ACE (Homo sapiens, UniProt P12821); conditions: cited from earlier work
Experimental: To illustrate the ACEi mechanism of MHP6, MHP7 and MHP9, a molecular docking assay was conducted (Figure 7), and the affinities of MHP6, MHP7 and MHP9 with ACE were −7.3, −10.9 and −9.4 kcal/mol, respectively, which were similar to those of ACEi peptides from miiuy croakers (IKSW: −9.3 kcal/mol), M. edulis (LSFR: −8.5 kcal/mol), rice bran (YSK: −7.9 kcal/mol), tuna milts (YEGDP: −8.8 kcal/mol) and soybean (LVLL: −8.6 kca ...

[2] = system: Nrf2 and heme oxygenase-1 (HO-1) proteins in HUVECs; conditions: oxidative damage, ref [73]; cited from earlier work
Excerpt: (§1) In addition, ET-1 is a known vasoconstriction factor, similar to Ang II, that can result in endothelial dysfunction associated with high blood pressure and atherosclerosis.

[3] = system: HUVECs; conditions: cited from earlier work; for NO and ET-1 production in HUVECs: ref [73]; for ET-1 secretion and NO generation in HUVECs: peptide from tuna roes, ref [31]
Excerpt: as §1

[4] = system: HUVECs, nitric oxide (NO) level; assay: NO production in HUVECs (assay kit); format: cell-based, Human; conditions: for NO level in HUVECs / NO production level in HUVECs: control 35.01 ± 1.38 µM; for NO level in HUVECs / NO content in NE-treated HUVECs / NO production level in HUVECs: mean ± SD, n = 3; for NO content in NE-treated HUVECs: peptide 300 μM + NE, NE alone 21.34 ± 1.24 µM; for NO production level in HUVECs: peptide 300 μM, 24 h, without NE; for NO content in HUVECs, result in words: treatment with peptide
Experimental: (§2) HUVECs were cultured in DMEM at 37 °C in a humidified 5% CO2 atmosphere, and the DMEM contained penicillin (100 U/mL), FBS (10%, v/v) and streptomycin ([…]). After 24 h, the cells were used for follow-up experiments.
(§3) After treatment with ACEi peptides (MHP6, MHP7 and MHP9, respectively) for 24 h, the NO and ET-1 content in the HUVECs was separately determined according to their assay kits as per manufacturers’ protocol.

[5] = system: HUVECs, endothelin-1 (ET-1) level; assay: ET-1 production in HUVECs (assay kit); format: cell-based, Human; conditions: for ET-1 content in NE-treated HUVECs: peptide 300 μM + NE (0.5 μM), NE alone 69.58 ± 3.11 pg/mL; for ET-1 content in HUVECs, result in words: peptide at 100–300 μM
Experimental: as §2, §3

[6] = target: T1, ACE; assay: ACEi activity (FAPGG substrate); format: biochemical; conditions: 1.5 mg/mL; FAPGG (3 mM) substrate, ACE 1.25 mU, 37 °C, 0.5 h incubation, HPLC at 228 nm; mean ± SD, n = 3
Experimental: The ACEi activity of PSC-MH, fractions and peptides (MHP1-MHP12) was determined by using FAPGG as a substrate. Briefly, the initial volume was made up of a 50 µL volume of FAPGG (3 mM), ACE (1.25 mU) and the sample solution, respectively. These solutions were first preheated at 37 °C for 0.5 h […], and mixed and incubated for an additional 0.5 h. After that, 150 µL of glacial acetic acid was added to the solution to inactivate ACE. After that, the content of hippuric acid (HA) in the reaction mixture produced from the substrate reactions catalyzed by ACE was determined using HPLC at 228 nm. In short, using an isocratic system (pH 3.0) made up of 12.5% (v/v) acetonitrile in deionized water, the amount of free HA was evaluated using an HPLC system (Agilent 1200, Agilent Ltd., Santa Clara, CA, USA) on a Zorbax SB C-18 column (4.6 × 250 mm, 5 µm). The sample (10 µL) was eluted at a flow rate of 1.0 mL/min, and the absorbance at 228 nm was monitored to obtain the measurement. A total of 50 µL of PBS buffer, used as the sample substitute, was added into the control reaction mixture. ACEi activity was calculated as follows: ACEi activity (%) = [(HA control − HA sample)/HA control] × 100%(1)

[7] = system: HUVECs; assay: Viability of HUVECs (MTT); format: cell-based, Human; conditions: for Cell viability of HUVECs: 400 µM; for Viability of HUVECs, result in words: 400 μM, 24 h, versus control and other concentration groups, p < 0.05
Experimental: as §2
The MTT method was employed to detect the viability of HUVECs incubated with MHP6, MHP7 and MHP9 [38]. In brief, HUVECs were seeded in 96-well plates and cultured for 24 h. Subsequently, HUVECs were separately treated with MHP6, MHP7 and MHP9 (100, 200, 300 or 400 μM) at 37 °C. After 24 h, MTT was added into the cell culture to reach a final concentration of 2 mg/mL. After 4 h, DMSO was added into each well and the absorbance at 490 nm was determined. Cell viability was calculated according to the following formula:Cell viability (%) = (Asample/Acontrol) × 100(2)

[8] = peptide 300 μM, 24 h, without NE, control 54.87 ± 2.57 pg/mL, mean ± SD, n = 3

T1 sequence (P12821 30-1306, species assumed): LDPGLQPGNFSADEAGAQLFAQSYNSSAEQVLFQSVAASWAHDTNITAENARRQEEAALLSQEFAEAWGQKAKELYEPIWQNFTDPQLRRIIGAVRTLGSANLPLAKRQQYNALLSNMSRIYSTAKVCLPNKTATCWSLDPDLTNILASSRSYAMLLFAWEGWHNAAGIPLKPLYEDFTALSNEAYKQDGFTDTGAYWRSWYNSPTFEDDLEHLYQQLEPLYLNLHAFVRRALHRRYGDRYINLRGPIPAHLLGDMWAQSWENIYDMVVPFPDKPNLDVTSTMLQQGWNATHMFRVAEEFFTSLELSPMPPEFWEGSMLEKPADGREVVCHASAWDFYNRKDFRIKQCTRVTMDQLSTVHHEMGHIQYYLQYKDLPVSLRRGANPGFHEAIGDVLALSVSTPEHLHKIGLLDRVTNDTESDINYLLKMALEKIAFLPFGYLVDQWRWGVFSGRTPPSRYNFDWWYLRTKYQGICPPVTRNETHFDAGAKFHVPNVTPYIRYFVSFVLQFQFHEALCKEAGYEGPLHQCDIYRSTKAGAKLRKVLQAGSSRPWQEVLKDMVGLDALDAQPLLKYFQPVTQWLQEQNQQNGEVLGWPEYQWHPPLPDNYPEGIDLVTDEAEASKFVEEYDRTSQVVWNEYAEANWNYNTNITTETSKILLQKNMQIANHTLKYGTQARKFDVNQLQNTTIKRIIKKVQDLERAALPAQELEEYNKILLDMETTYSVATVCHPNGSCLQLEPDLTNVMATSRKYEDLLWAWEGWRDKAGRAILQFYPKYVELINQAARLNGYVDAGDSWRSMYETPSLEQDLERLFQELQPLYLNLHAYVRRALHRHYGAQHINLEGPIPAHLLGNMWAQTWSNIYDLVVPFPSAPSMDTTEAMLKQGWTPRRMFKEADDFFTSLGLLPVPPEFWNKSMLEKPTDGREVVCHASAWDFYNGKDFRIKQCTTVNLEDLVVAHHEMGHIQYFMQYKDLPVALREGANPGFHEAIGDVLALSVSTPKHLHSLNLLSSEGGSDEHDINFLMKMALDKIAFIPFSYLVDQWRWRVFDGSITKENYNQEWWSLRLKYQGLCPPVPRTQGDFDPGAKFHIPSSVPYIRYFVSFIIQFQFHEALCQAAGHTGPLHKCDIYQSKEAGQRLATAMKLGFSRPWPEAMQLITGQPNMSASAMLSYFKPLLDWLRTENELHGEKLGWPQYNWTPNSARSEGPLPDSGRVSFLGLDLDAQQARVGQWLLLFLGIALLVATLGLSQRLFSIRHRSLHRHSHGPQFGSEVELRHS

LSFR
Affinity with ACE ([1]; peptide from M. edulis, ref [30]): -8.5 kcal/mol

VGPAGPRG
Expression levels of Nrf2 and HO-1 proteins [2]: positively regulate the expression levels of Nrf2 and heme oxygenase-1 (HO-1) proteins
NO and ET-1 production in HUVECs [3]: regulate NO and ET-1 production in a concentration-dependent manner

IVTNWDDMEK
Expression levels of Nrf2 and HO-1 proteins [2]: positively regulate the expression levels of Nrf2 and heme oxygenase-1 (HO-1) proteins
NO and ET-1 production in HUVECs [3]: regulate NO and ET-1 production in a concentration-dependent manner

WSPGF [from tuna roes]
ET-1 secretion and NO generation in HUVECs [3]: significantly bring down ET-1 secretion and improve the NO generation in HUVECs

YEGDP
Affinity with ACE ([1]; peptide from tuna milts, ref [32]): -8.8 kcal/mol

C[C@H](CS)C(=O)N1CCC[C@H]1C(=O)O [Cap, captopril, reference compound]
NO level in HUVECs ([4]; Cap treatment): 56.18 ± 2.58 µM
ET-1 level in HUVECs ([5]; Cap 1.0 μM, control 54.87 ± 2.57 pg/mL, mean ± SD, n = 3): 32.25 ± 1.26 pg/mL

H-SPGPW-OH [MHP9, Ser-Pro-Gly-Pro-Trp]
NO content in NE-treated HUVECs ([4]; p < 0.001): 29.87 ± 1.34 µM
NO production level in HUVECs [4]: 49.83 ± 0.96 µM
NO content in HUVECs, result in words [4]: significantly increased
ET-1 content in NE-treated HUVECs ([5]; p < 0.001, mean ± SD, n = 3): 58.44 ± 2.34 pg/mL
ET-1 content in HUVECs [5, 8]: 42.18 ± 2.09 pg/mL
ET-1 content in HUVECs, result in words ([5]; p < 0.001): significantly reduce the ET-1 content in HUVECs
ACEi activity [6]: 85.39 ± 3.46%
Cell viability of HUVECs [7]: 91.76 ± 3.22%
Viability of HUVECs, result in words [7]: might lead to some adverse harm to the function of HUVECs

LVLL [ACEi peptide from soybean]
Affinity with ACE ([1]; peptide from soybean, ref [72]): -8.6 kcal/mol

H-SEGPK-OH [MHP6, Ser-Glu-Gly-Pro-Lys]
NO content in NE-treated HUVECs ([4]; p < 0.001): 31.24 ± 1.29 µM
NO production level in HUVECs [4]: 51.68 ± 2.38 µM
NO content in HUVECs, result in words [4]: significantly increased
ET-1 content in NE-treated HUVECs ([5]; p < 0.001, mean ± SD, n = 3): 57.62 ± 1.95 pg/mL
ET-1 content in HUVECs [5, 8]: 40.35 ± 1.96 pg/mL
ET-1 content in HUVECs, result in words ([5]; p < 0.001): significantly reduce the ET-1 content in HUVECs
ACEi activity [6]: 86.34 ± 3.25%
Cell viability of HUVECs [7]: 91.27 ± 2.64%
Viability of HUVECs, result in words [7]: might lead to some adverse harm to the function of HUVECs

WGESF [from tuna roes]
ET-1 secretion and NO generation in HUVECs [3]: significantly bring down ET-1 secretion and improve the NO generation in HUVECs

IKSW [ACEi peptide from miiuy croakers]
Affinity with ACE ([1]; peptide from miiuy croakers, ref [31]): -9.3 kcal/mol

H-FDGPY-OH [MHP7, Phe-Asp-Gly-Pro-Tyr]
NO content in NE-treated HUVECs ([4]; p < 0.001): 26.31 ± 1.22 µM
NO production level in HUVECs [4]: 48.91 ± 2.35 µM
NO content in HUVECs, result in words [4]: significantly increased
ET-1 content in NE-treated HUVECs ([5]; p < 0.001, mean ± SD, n = 3): 61.23 ± 1.89 pg/mL
ET-1 content in HUVECs [5, 8]: 43.87 ± 1.73 pg/mL
ET-1 content in HUVECs, result in words ([5]; p < 0.001): significantly reduce the ET-1 content in HUVECs
ACEi activity [6]: 84.99 ± 2.34%
Cell viability of HUVECs [7]: 90.39 ± 3.19%
Viability of HUVECs, result in words [7]: might lead to some adverse harm to the function of HUVECs

NC[C@H](O)c1ccc(O)c(O)c1 [NE, norepinephrine, reference compound]
NO level in HUVECs ([4]; NE treatment, p < 0.001): 21.34 ± 1.24 µM
ET-1 content in HUVECs ([5]; NE 0.5 μM, control 54.87 ± 2.57 pg/mL, p < 0.001, mean ± SD, n = 3): 69.58 ± 3.11 pg/mL
